Patent publication US8399451B2, “Heterocyclic compounds” (Bristol-Myers Squibb Company, priority 2009, dated 2013)
Structures can show the parent of a compound that is named as a salt.

Assays:
[1] = target: T1, S1P1 (Homo sapiens, UniProt P21453); experiment: Receptor [35S] GTPγS Binding Assay, membranes from S1P1/CHO cells; assay type: biochemical; parameters: expressed in transfected cells; host or cells: S1P1/CHO cells; settings: for EC50: membranes from S1P1/CHO cells, read-out: S1P1 GTPγS EC50; for S1P3/S1P1 GTPγS (ratio of S1P3 GTPγS EC50 to S1P1 GTPγS EC50): selectivity ratio calculated from Table B, * may be greater than reported value due to S1P3 assay limits
Protocol: (§1) Receptor [35S] GTPγS Binding Assays
(§2) Membranes prepared from S1P1/CHO cells or EDG3-Ga15-bla HEK293T cells were added to the compound plate (40 μl/well, final protein 3 μg/well) with MULTIDROP®. [^35S]GTP (1250 Ci/mmol, Perkin Elmer) was diluted in assay buffer: 20 mM HEPES, pH7.5, 10 mM MgCl2, 150 mM NaCl, 1 mM EGTA, 1 mM DTT, 10 μM GDP, 0.1% fatty acid free BSA, and 10 μg/ml Saponin to 0.4 nM. 40 μl of the [^35S] GTP solution was added to the compound plate with a final concentration of 0.2 nM. […] At the end of incubation, all the mixtures in the compound plate were transferred to a 384 well FB filter plates via GPCR robot system. […] 30 μl of MicroScint 20 scintillation fluid was added to each well for counting at Packard TOPCOUNT®.

[2] = target: T2, S1P3 (Homo sapiens, UniProt Q99500); experiment: Receptor [35S] GTPγS Binding Assay, membranes from EDG3-Ga15-bla HEK293T cells; assay type: biochemical; settings: * detection limit 31,000 nM or 62,000 nM
T2 construct: expressed in transfected cells; host or cells: EDG3-Ga15-bla HEK293T cells
Protocol: as §1, §2

[3] = target: T1, S1P1; experiment: S1P1 Binding Assay (33P-S1P radioligand competition, membranes); parameters: expressed in transfected cells; host or cells: CHO cells; settings: membranes from CHO cells expressing human S1P1; 0.03 nM 33P-S1P; rounded to two digits
Protocol: Membranes were prepared from CHO cells expressing human S1P1. Cells were dissociated in buffer containing 20 mM HEPES, pH 7.5, 50 mM NaCl, 2 mM EDTA and Protease Inhibitor cocktail (Roche), and disrupted on ice using the Polytron homogenizer. The homogenate was centrifuged at 20,000 rpm (48,000 G) and the supernatant was discarded. The membrane pellets were resuspended in buffer containing 50 mM HEPES, pH 7.5, 100 mM NaCl, 1 mM MgCl2, 2 mM EDTA and stored in aliquots at −80° C. after protein concentration determination.
Binding was performed for 45 minutes at room temperature, terminated by collecting the membranes onto GF/B filter plates, and radioactivity was measured by TOPCOUNT®. The competition data of the test compounds over a range of concentrations was plotted as percentage inhibition of radioligand specific binding.
The results in Table A were rounded to two digits.

T2 sequence (Q99500 whole entry): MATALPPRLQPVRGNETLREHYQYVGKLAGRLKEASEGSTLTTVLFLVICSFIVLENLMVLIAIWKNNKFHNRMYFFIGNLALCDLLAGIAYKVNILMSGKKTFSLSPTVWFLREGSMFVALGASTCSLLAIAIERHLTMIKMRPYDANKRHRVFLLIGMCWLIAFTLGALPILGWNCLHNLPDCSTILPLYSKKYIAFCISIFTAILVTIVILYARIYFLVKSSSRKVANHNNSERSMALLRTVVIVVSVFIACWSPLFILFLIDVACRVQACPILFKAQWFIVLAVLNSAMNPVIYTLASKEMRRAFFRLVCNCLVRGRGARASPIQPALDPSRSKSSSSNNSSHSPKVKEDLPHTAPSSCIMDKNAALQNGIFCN
T1 sequence (P21453 whole entry): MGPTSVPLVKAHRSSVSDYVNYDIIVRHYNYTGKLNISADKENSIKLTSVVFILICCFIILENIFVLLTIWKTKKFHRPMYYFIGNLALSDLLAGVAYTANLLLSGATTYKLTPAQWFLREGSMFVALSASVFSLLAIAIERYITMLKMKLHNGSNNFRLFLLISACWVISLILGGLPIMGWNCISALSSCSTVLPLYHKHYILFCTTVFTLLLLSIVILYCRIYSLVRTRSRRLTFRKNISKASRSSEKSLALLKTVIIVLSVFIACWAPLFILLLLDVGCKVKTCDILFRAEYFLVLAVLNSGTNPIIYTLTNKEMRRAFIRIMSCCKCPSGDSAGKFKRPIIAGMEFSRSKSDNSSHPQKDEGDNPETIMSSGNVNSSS

Structure (SMILES) | EC50 [1] | S1P3/S1P1 GTPγS (ratio of S1P3 GTPγS EC50 to S1P1 GTPγS EC50) [1] | EC50 [2] | IC50 [3]
O=C(O)[C@H]1CCCN(CC(O)c2ccc(-c3noc(-c4ccc(-c5ccccn5)s4)n3)cc2)C1 (stereo partly drawn) [Example 43, (3S)-1-(2-hydroxy-2-(4-(5-(5-(pyridin-2-yl)thiophen-2-yl)-1,2,4-oxadiazol-3-yl)phenyl)ethyl)piperidine-3-carboxylic acid] | 0.36 µM | ≥ 170* | > 62 µM | –
O=C(O)[C@H]1CCCN(CC(O)c2ccc(-c3noc(-c4onc(-c5ccccc5)c4C(F)(F)F)n3)c(C(F)(F)F)c2)C1 (stereo partly drawn) [Example 26, (3S)-1-(2-Hydroxy-2-(4-(5-(3-phenyl-4-(trifluoromethyl)isoxazol-5-yl)-1,2,4-oxadiazol-3-yl)-3-(trifluoromethyl)phenyl)ethyl)piperidine-3-carboxylic acid] | – | – | – | 0.014 µM
O=C(O)C1CN(CC(O)c2ccc(-c3noc(-c4onc(-c5ccccc5)c4C(F)(F)F)n3)cc2)CCO1 (stereo not drawn) [Example 28, 4-(2-Hydroxy-2-(4-(5-(3-phenyl-4-(trifluoromethyl)isoxazol-5-yl)-1,2,4-oxadiazol-3-yl)phenyl)ethyl)morpholine-2-carboxylic acid] | – | – | – | 0.031 µM
Cc1nc(-c2ccccc2)sc1-c1nc(-c2ccc(C(O)CN3CCC[C@H](C(=O)O)C3)cc2)no1 (stereo partly drawn) [Example 46, (3S)-1-(2-hydroxy-2-(4-(5-(4-methyl-2-phenylthiazol-5-yl)-1,2,4-oxadiazol-3-yl)phenyl)ethyl)piperidine-3-carboxylic acid] | 0.63 µM | 13 | 8.1 µM | –
O=C(O)CC1CN(CC(O)c2ccc(-c3noc(-c4onc(-c5ccccc5)c4C(F)(F)F)n3)cc2)C1 (stereo not drawn) [Example 27, 2-(1-(2-Hydroxy-2-(4-(5-(3-phenyl-4-(trifluoromethyl)isoxazol-5-yl)-1,2,4-oxadiazol-3-yl)phenyl)ethyl)azetidin-3-yl)acetic acid] | – | – | – | 0.014 µM
Cl.O=C(O)C[C@H]1CCCN(C[C@@H](O)c2ccc(-c3noc(-c4cnn(-c5ccc(F)cn5)c4C(F)(F)F)n3)cc2)C1 [Example 82, 2-((R)-1-((S)-2-(4-(5-(1-(5-fluoropyridin-2-yl)-5-(trifluoromethyl)-1H-pyrazol-4-yl)-1,2,4-oxadiazol-3-yl)phenyl)-2-hydroxyethyl)piperidin-3-yl)acetic acid, HCl] | 0.003 µM | 2050 | 6.09 µM | –
O=C(O)[C@H]1CCCN(CC(O)c2ccc(-c3noc(-c4cc(-c5ccc(Cl)cc5)on4)n3)cc2)C1 (stereo partly drawn) [Example 53, (3S)-1-(2-(4-(5-(5-(4-chlorophenyl)isoxazol-3-yl)-1,2,4-oxadiazol-3-yl)phenyl)-2-hydroxyethyl)piperidine-3-carboxylic acid] | 1.9 µM | ≥ 16* | > 31 µM | –
O=C(O)C[C@H]1CCCN(C[C@@H](O)c2ccc(-c3noc(-c4cnn(-c5ccc(Cl)cn5)c4C(F)(F)F)n3)cc2)C1 [Example 70, 2-((R)-1-((S)-2-(4-(5-(1-(5-chloropyridin-2-yl)-5-(trifluoromethyl)-1H-pyrazol-4-yl)-1,2,4-oxadiazol-3-yl)phenyl)-2-hydroxyethyl)piperidin-3-yl)acetic acid, HCl] | 0.0012 µM | 8800 | 10.4 µM | –
O=C(O)C[C@H]1CCCN(C[C@@H](O)c2ccc(-c3noc(-c4cnn(C5CCCCC5)c4C(F)(F)F)n3)cc2)C1 [Example 59, 2-((R)-1-((S)-2-(4-(5-(1-cyclohexyl-5-(trifluoromethyl)-1H-pyrazol-4-yl)-1,2,4-oxadiazol-3-yl)phenyl)-2-hydroxyethyl)piperidin-3-yl)acetic acid, HCl] | 0.0018 µM | 1160 | 2.08 µM | –
O=C(O)[C@H]1CCCCN1CC(O)c1ccc(-c2noc(-c3onc(-c4ccccc4)c3C(F)(F)F)n2)cc1 (stereo partly drawn) [Example 41, (2R)-1-(2-Hydroxy-2-(4-(5-(3-phenyl-4-(trifluoromethyl)isoxazol-5-yl)-1,2,4-oxadiazol-3-yl)phenyl)ethyl)piperidine-2-carboxylic acid] | 0.0054 µM | 1400 | 7.5 µM | –
Cc1cccc(-c2noc(-c3nc(-c4ccc(C(O)CN5CCC[C@H](C(=O)O)C5)cc4)no3)c2C(F)(F)F)n1 (stereo partly drawn) [Example 37, (3S)-1-(2-Hydroxy-2-(4-(5-(3-(6-methylpyridin-2-yl)-4-(trifluoromethyl)isoxazol-5-yl)-1,2,4-oxadiazol-3-yl)phenyl)ethyl)piperidine-3-carboxylic acid] | 0.069 µM | ≥ 910* | > 62 µM | –

The remaining lines, values ahead:

EC50 [1] | S1P3/S1P1 GTPγS (ratio of S1P3 GTPγS EC50 to S1P1 GTPγS EC50) [1] | EC50 [2] | IC50 [3] | Structure (SMILES)
0.0045 µM | ≥ 6900* | > 31 µM | – | O=C(O)[C@H]1CCCN(C[C@@H](O)c2ccc(-c3noc(-c4cnn(-c5ccccn5)c4C(F)(F)F)n3)cc2)C1 [Example 104, (S)-1-((S)-2-hydroxy-2-(4-(5-(1-(pyridin-2-yl)-5-(trifluoromethyl)-1H-pyrazol-4-yl)-1,2,4-oxadiazol-3-yl)phenyl)ethyl)pipcridine-3-carboxylic acid]
0.0086 µM | 730 | 6.3 µM | – | Cc1ccc(-n2ncc(-c3nc(-c4ccc([C@H](O)CN5CCC[C@H](CC(=O)O)C5)cc4)no3)c2C(F)(F)F)nc1 [Example 94, 2-((R)-1-((S)-2-hydroxy-2-(4-(5-(1-(5-methylpyridin-2-yl)-5-(trifluoromethyl)-1H-pyrazol-4-yl)-1,2,4-oxadiazol-3-yl)phenyl)ethyl)piperidin-3-yl)acetic acid]
0.026 µM | ≥ 2400* | > 62 µM | – | O=C(O)C[C@H]1CCCN(C[C@@H](O)c2ccc(-c3noc(-c4ncn(-c5ccc(Cl)cc5)c4C(F)(F)F)n3)cc2)C1 [Example 117, 2-((R)-1-((S)-2-(4-(5-(1-(4-Chlorophenyl)-5-(trifluoromethyl)-1H-imidazol-4-yl)-1,2,4-oxadiazol-3-yl)phenyl)-2-hydroxyethyl)piperidin-3-yl)acetic acid]
0.001 µM | 2250 | 2.25 µM | – | O=C(O)[C@H]1CCCN(C[C@@H](O)c2ccc(-c3noc(-c4cnn(C5CCCCC5)c4C(F)(F)F)n3)cc2)C1 [Example 106, (S)-1-((S)-2-(4-(5-(1-cyclohcxyl-5-(trifluoromethyl)-1H-pyrazol-4-yl)-1,2,4-oxadiazol-3-yl)phenyl)-2-hydroxyethyl) piperidine-3-carboxylic acid]
0.0036 µM | 6900 | 24.8 µM | – | O=C(O)C[C@H]1CCCN(C[C@@H](O)c2ccc(-c3noc(-c4cnn(-c5ccccc5Cl)c4C(F)(F)F)n3)cc2)C1 [Example 72, 2-((3R)-1-((2S)-2-(4-(5-(1-(2-chlorophenyl)-5-(trifluoromethyl)-1H-pyrazol-4-yl)-1,2,4-oxadiazol-3-yl)phenyl)-2-hydroxyethyl)piperidin-3-yl)acetic acid, HCl]
0.0068 µM | ≥ 4580* | > 31 µM | – | O=C(O)[C@H]1CCCN(C[C@@H](O)c2ccc(-c3noc(-c4cnn(-c5ncc(Cl)cc5Cl)c4C(F)(F)F)n3)cc2)C1 [Example 100, (S)-1-((S)-2-(4-(5-(1-(3,5-dichloropyridin-2-yl)-5-(trifluoromethyl)-1H-pyrazol-4-yl)-1,2,4-oxadiazol-3-yl)phenyl)-2-hydroxyethyl) piperidine-3-carboxylic acid, HCl]
0.003 µM | 1100 | 3.3 µM | – | O=C(O)[C@H]1CCCN(C[C@@H](O)c2ccc(-c3noc(-c4cnn(-c5ccc(C(F)(F)F)cn5)c4C(F)(F)F)n3)cc2)C1 [Example 98, (S)-1-((S)-2-hydroxy-2-(4-(5-(5-(trifluoromethyl)-1-(5-(trifluoromethyl)pyridin-2-yl)-1H-pyrazol-4-yl)-1,2,4-oxadiazol-3-yl)phenyl)ethyl)piperidine-3-carboxylic acid, HCl]
0.0021 µM | 1030 | 2.2 µM | – | O=C(O)C[C@H]1CCCN(C[C@@H](O)c2ccc(-c3noc(-c4cnn(-c5ccc(F)cc5F)c4C(F)(F)F)n3)cc2)C1 [Example 73, 2-((3R)-1-((2S)-2-(4-(5-(1-(2,4-difluorophenyl)-5-(trifluoromethyl)-1H-pyrazol-4-yl)-1,2,4-oxadiazol-3-yl)phenyl)-2-hydroxyethyl)piperidin-3-yl)acetic acid, HCl]
